Measured values as given in patent US8394776B2, “Use of ursolic acid saponin,oleanolic acid saponin in preparation of increasing leucocytes and/or platelet medicine” (Chengdu Di'Ao Jiuhong Pharmaceutical Factor, priority 2007, dated 2013).
Marks after values point to notes of the source that are not given here.

B1: G-CSF: recombinant granulocyte colony-stimulating factor, manufactured by QI LU Pharmaceutical Co., LTD., Shandong (protein, UniProt P09919 31-207, looked up)
Granulocyte …: TPLGPASSLPQSFLLKCLEQVRKIQGDGAALQEKLVSECATYKLCHPEELVLLGHSLGIPWAPLSSCPSQALQLAGCLSQLHSGLFLYQGLLQALEGISPELGPTLDTLQLDVADFATTIWQQMEELGMAPALQPTQGAMPAFASAFQRRAGGVLVASHLQSFLEVSYRVLRHLAQP

What was measured:
[1] = tested on: bone marrow mononuclear cell (BMMNC); experiment: Monocytic proliferation in bone marrow of mice cultured in vitro (SRB method); format: cell-based, KunMing mice; conditions: cultured 5 days; for Growth Rate of Proliferation %, 1 μg/ml: versus blank control
Excerpt: 15-20 KunMing mice (purchased from Laboratory Animal Center of Zhengzhou University, Henan) of either sex were killed by cervical vertebral dislocation. Bilateral thighbones were isolated and caput femoris was cut off. The marrow was washed repeatedly with serum-free RPMI1640 (Gibco Corp.), the wash solution containing marrow cells was collected, sucked and blew repeatedly with a pipette to make the cells disperse. After standing for a moment, the supernatant was sucked up and centrifugated at 100 g for 3 min to collect the cell pellet. The cells were resuspended in a culture media and brought to a volume of 5 ml. The cell suspension was added to the upper layer of a centrifugal tube containing 5 ml of a lymphocyte separation medium of mice and centrifugated at 400 g for 30 min. The milk-white bone marrow mononuclear cell (BMMNC) layer in the middle of the interface was collected and washed with serum-free medium RPMI1640 for three times to obtain a BMMNC suspension, which was inoculated into a 96-well plate at forty thousand per well after counting. Positive drugs rhG-CSF (recombinant granulocyte colony-stimulating factor, manufactured by QI LU Pharmaceutical Co., LTD., Shandong) or test samples of different concentrations were added, and meanwhile a blank control group without drug was established. They were cultured in a 5% CO2 incubator at 37 for 5 days. Cell proliferation was measured by a conventional SRB (Sigma) method in which OD at 490 nm was measured after being dyed with SRB. The growth rates of cell proliferation after drug treatment were calculated (Growth rate of cell proliferation=experimental group-blank control group/blank control group*100%).

[2] = tested on: erythrocytes; experiment: Comparison of hemolytic activities (HD50); format: cell-based, rabbit; conditions: 10% rabbit erythrocyte suspension; 37° C., 1 hour; from linear regression over 40-200 μg/ml
Description: The test samples were dissolved in DMSO/physiological saline (1:4) as a solvent to generate the tested concentration gradients of 40, 80, 120, 160, 200 μg/ml. Blood (25 ml) was taken from a rabbit heart, poured into an erlenmeyer flask containing glass beads and shook gently for 10 min to remove fibrinogen so as to convert the blood into defidrinated blood. The resultant blood was transferred into a graduation centrifugal tube. About 10 times physiological saline was added, shook up and centrifuged at 2000 r/min for 5 minutes. The supernatant was removed, and the precipitated erythrocytes were washed with physiological saline again by the above method for 4 times until the supernatant was colorless and transparent. The resulant erythrocytes were prepared into a 10% suspension using physiological saline for testing. 250 μl of the 10% erythrocyte suspension was added into 2.5 ml of a tested sample, solvent (blank control) or distilled water (positive control), mixed thoroughly, and immediately placed in a thermotank maintained at 37° C. for incubation; and it was taken out 1 hour later and centrifuged at 3000 r/min for 5 minutes. The supernatant was taken for determining the OD value at 540 nm with a spectrophotometer. Hemolysis (Hemolysis Percentage)=(absorbance of sample−absorbance of blank control)×100%÷(absorbance of positive control-absorbance of blank control); and the data processing was performed by SPSS13.0 statistical software with drug concentration as an independent variable X and hemolysis as a dependent variable Y to obtain a linear regression equation; then, the drug concentration causing 50% hemolysis, i.e HD50, was calculated according to the equation. A P-value <0.05 was considered statistically significant.

[3] = tested on: leukocytes (WBC); experiment: Cyclophosphamide-induced leukopenia in mice: leukocytes (WBC); format: in vivo, Kunming mice
Description: (§1) Further, in vivo experiments were carried out on the compounds involved in the present invention using animal models of cyclophosphamide-induced leukopenia in mice. Experimental methods are briefed as follows: Healthy Kunming mice, of which half were male and the other half were female, were divided into groups, each group incuding 18 mice, and those mice weighing 18-22 g were selected and divided into groups randomly according to their body weights. Each group was given a different drug, wherein the negative control group and model control group were given physiological saline of the same volume, and the positive control group was treated with granulocyte colony-stimulating factors 40 μg/kg through subcutaneous injection (injection volume: 0.1 ml/10 g). After administration for 3 days, except the negative control group, other treatment groups were treated with 100 mg/kg cyclophosphamide (CY) through lumbar injection once a day for three days to cause a decrease of leukocytes in mice. A drop of blood (20 μl) was taken from posterior orbital venous plexus to detect the hemogram to observe the situation of leukocytes and platelets on day 1, day 3 and/or day 5 after the final lumbar injection of cyclophosphamide (i.e day 1, day 3 and/or day 5 after modeling) (Note: Each treatment group was administrated incessantly). The mice were killed on day 5 after the final lumbar injection of cyclophosphamide (i.e day 5 after modeling), and the leukocytes (WBC) and platelets (PLT) of the hemogram index were counted.
This experiment mainly studies the effect of G-1, G-6 and G-8 of ursolic acid saponin in increasing leukocytes, and compares the therapeutic effects of aglycon of ursolic acid and oleanolic acid and of the compound G-22 which has been disclosed by a patent.
(§2) The purpose of this experiment is to study the effect of G-1, G-3, G-11 and G-12 of ursolic acid saponin and oleanolic acid saponin in increasing platelets, and to observe whether G-11 and G-12 of oleanolic acid saponin have an effect in increasing leukocytes.

[4] = tested on: platelets (PLT); experiment: Cyclophosphamide-induced leukopenia in mice: platelets (PLT); format: in vivo, Kunming mice; conditions: Experimental Example 3
Description: as §1, §2

[5] = tested on: WBC; experiment: 60Co-γ-induced leukopenia in mice: WBC; format: in vivo, Kunming mice
Excerpt: In order to illustrate the present invention in detail, with a model induced by ^60Co-γ rays, the effects of G-1 and G-22 on leukocytes of chemotherapy-induced-leukopenia mice were compared. The specific operation and the results are as follows.
Healthy Kunming mice, of which half were male and the other half were female, were divided into 6 groups randomly, with 17-18 in each group. Blood was taken from caudal vein to determine the normal hemogram (leucocyte, erythrocyte, platelet and hemoglobin), and adjustments were made according to body weights and hemogram results. The normal control group and model group were given isometric physiological saline once a day for 7 days, and then the post-radiation hemogram was determined. Except the normal control group, other groups were each subjected to a whole body exposure to ^60Co-γ rays at a total dose of 3.0 Gy to prepare the models of leukopenia in mice, followed by further administration for 14 days. The G-CSF group was adminitrated through subcutaneous injection for 5 days from the irradiation day on and the hemogram was determined by taking blood respectively on day 3, day 7 and day 14 after irradiation.

[6] = Experimental Example 2, 0.8 mg/kg
[7] = Experimental Example 2, 0.8 mg/kg, CY 100 mg/kg x 3 days
[8] = Experimental Example 2, 0.8 mg/kg, especially on day 3 after modeling
[9] = Experimental Example 3, 0.8 mg/kg
[10] = 0.80 mg/kg i.g., 3.0 Gy whole body
[11] = 40 μg/kg s.c. for 5 days from irradiation day, 3.0 Gy
[12] = 40 μg/kg subcutaneous injection
[13] = Experimental Example 2, 40 μg/kg subcutaneous injection
[14] = Experimental Example 3, 40 μg/kg subcutaneous injection

Molecule	Growth Rate of Proliferation %, 1 μg/ml [1] [%]	HD50 (drug concentration causing 50% hemolysis) [2] [µg/mL]	leukocytes (WBC), Day 3 after modeling [3, 6]	leukocytes (WBC), Day 5 after modeling [3, 6]	leukocytes (WBC), Day1 after modeling [3, 7]	difference in increasing leukocytes compared with G-22 (in words) [3, 8]	platelets, Day 1 after modelng ([4]; 0.8 mg/kg)	platelets, Day 5 after modeling ([4]; 0.8 mg/kg)	leukocytes, Day 1 after modeling [3, 9]	leukocytes, Day 5 after modeling [3, 9]	also measured
C[C@H]1[C@H](C)CC[C@]2(C(=O)O)CC[C@]3(C)C(=CC[C@@H]4[C@@]5(C)CC[C@H](O[C@@H]6OC[C@H](O)[C@H](O)[C@H]6O)C(C)(C)[C@@H]5CC[C@]43C)[C@H]12 [Sample G-6, 3-O-(α-L-arabopyranosyl) ursolic acid]	29.9	121.40	7.13 ± 2.61**★	17.16 ± 14.13	1.19 ± 0.47	obvious difference in increasing leukocytes					
C[C@H]1[C@H](C)CC[C@]2(C(=O)O[C@@H]3O[C@H](CO)[C@@H](O)[C@H](O)[C@H]3O)CC[C@]3(C)C(=CC[C@@H]4[C@@]5(C)CC[C@H](O[C@@H]6O[C@H](CO)[C@@H](O)[C@H](O)[C@H]6O)C(C)(C)[C@@H]5CC[C@]43C)[C@H]12 [Sample G-3, 3-O-(β-D-glucopyranosyl) ursolic acid-28-O-(β-D-glucopyranosyl) ester]	25.2	137.99					473.12 ± 144.68	341.93 ± 186.39**★	1.16 ± 0.53	5.62 ± 2.78	difference in increasing platelets compared with G-22 (in words) ([4]; 0.8 mg/kg, day 5 after modeling): significant difference in increasing leukocytes and platelets; difference in increasing leukocytes compared with G-22 (in words) ([3]; Experimental Example 3, 0.8 mg/kg, day 5 after modeling): significant difference in increasing leukocytes and platelets
C[C@@H]1CC[C@]2(C(=O)O[C@@H]3O[C@H](CO)[C@@H](O)[C@H](O)[C@H]3O)CC[C@]3(C)C(=CC[C@@H]4[C@@]5(C)CC[C@H](O[C@@H]6OC[C@H](O)[C@H](O)[C@H]6O)C(C)(C)[C@@H]5CC[C@]43C)[C@@H]2[C@]1(C)O [Sample G-22, 3-O-(α-L-arabopyranosyl)-19-hydroxy-ursolic acid-28-O-(β-D-glucopyranosyl) ester, reference compound]	15.2		5.17 ± 1.77	11.87 ± 9.53	1.08 ± 0.34Δ		491.36 ± 126.28	210.00 ± 119.38	0.92 ± 0.28	8.81 ± 6.44	effect on leucocyte count of leukopenia mice (in words) ([5]; 0.80 mg/kg gastric perfusion, versus model group, day 7 and day 14 after irradiation): no evident effect; WBC, 1 week after administration ([5]; 0.80 mg/kg i.g. once a day for 7 days, before irradiation): 9.50 ± 3.17 109/L; WBC, Day 3 after irradiation [5, 10]: 2.21 ± 0.92 109/L; WBC, Day 7 after irradiation [5, 10]: 4.08 ± 1.50 109/L; WBC, Day 14 after irradiation [5, 10]: 5.44 ± 1.13 109/L; WBC, Normal ([5]; normal hemogram before administration (baseline), 0.80 mg/kg i.g. group): 8.56 ± 2.43 109/L
C[C@H]1[C@H](C)CC[C@]2(C(=O)O[C@@H]3O[C@H](CO)[C@@H](O)[C@H](O)[C@H]3O)CC[C@]3(C)C(=CC[C@@H]4[C@@]5(C)CC[C@H](O[C@@H]6OC[C@H](O)[C@H](O)[C@H]6O)C(C)(C)[C@@H]5CC[C@]43C)[C@H]12 [Sample G-8, 3-O-(α-L-arabopyranosyl) ursolic acid-28-O-(β-D-glucopyranosyl) ester]	29.5	69.96	6.91 ± 2.54**★	15.32 ± 9.07	0.85 ± 0.39	obvious difference in increasing leukocytes					
B1											Growth Rate of Proliferation % ([1]; G-CSF positive drug at 5 pg/ml): 33.2%; WBC, Day 3 after irradiation [5, 11]: 3.71 ± 1.11** 109/L; WBC, Day 7 after irradiation [5, 11]: 4.56 ± 1.17** 109/L; WBC, Day 14 after irradiation [5, 11]: 7.01 ± 1.52** 109/L; WBC, 1 week after administration ([5]; G-CSF group before irradiation, G-CSF is given only from the irradiation day on): 9.89 ± 3.30 109/L; WBC, Normal ([5]; normal hemogram (baseline), G-CSF group, not yet dosed): 8.64 ± 2.01 109/L; platelets, Day 1 after modelng [4, 12]: 408.38 ± 86.38; platelets, Day 5 after modeling [4, 12]: 206.64 ± 140.14; effect in increasing platelets (in words) ([4]; G-CSF 40 μg/kg subcutaneous injection): no obvious effect in increasing platelets; leukocytes (WBC), Day1 after modeling [3, 13]: 1.17 ± 0.33; leukocytes (WBC), Day 3 after modeling [3, 13]: 5.93 ± 3.10; leukocytes (WBC), Day 5 after modeling [3, 13]: 13.18 ± 5.53; leukocytes, Day 1 after modeling [3, 14]: 0.63 ± 0.20; leukocytes, Day 5 after modeling [3, 14]: 9.70 ± 5.28
